{"source": "patent US7452887B2", "about": "“Quinoline- and isoquinoline-based compounds exhibiting ATP-utilizing enzyme inhibitory activity, and compositions, and uses thereof” (Amphora Discovery Corporation, priority 2004, dated 2008)", "assay_in_all_cases": "HTS ATP-utilizing enzyme assay, off-chip mobility-shift (Caliper HTS 250)", "format_in_all_cases": "biochemical", "details_in_all_cases": "test compound 10 μM, kinase listed = active (greater than six-sigma from the mean activity of inactive compounds)", "key": {"SRC": {"molecular_target": "SRC (Homo sapiens, UniProt P12931)", "sequence (P12931 whole entry)": "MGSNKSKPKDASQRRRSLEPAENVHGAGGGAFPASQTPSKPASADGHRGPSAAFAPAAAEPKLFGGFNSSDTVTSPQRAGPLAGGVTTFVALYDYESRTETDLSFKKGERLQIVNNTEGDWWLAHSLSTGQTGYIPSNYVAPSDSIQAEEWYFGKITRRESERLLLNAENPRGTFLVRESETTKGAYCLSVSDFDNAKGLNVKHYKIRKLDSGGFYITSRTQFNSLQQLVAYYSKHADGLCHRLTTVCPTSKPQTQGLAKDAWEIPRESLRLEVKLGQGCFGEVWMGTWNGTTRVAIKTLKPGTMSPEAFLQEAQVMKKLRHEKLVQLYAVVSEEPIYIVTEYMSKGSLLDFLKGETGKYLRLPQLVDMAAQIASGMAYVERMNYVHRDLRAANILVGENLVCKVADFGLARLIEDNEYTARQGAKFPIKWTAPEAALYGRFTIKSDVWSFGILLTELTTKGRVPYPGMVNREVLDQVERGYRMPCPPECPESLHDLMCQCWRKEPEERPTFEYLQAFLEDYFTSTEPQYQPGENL", "method_in_brief": "(§1)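 Single-point screen, 10 μM compound; kinase + peptide substrate, HEPES pH 7.5/Triton X-100/BSA; 2.5 hrs, 20–22° C.; EDTA stop. Readout: substrate vs phosphoproduct ratio by off-chip mobility shift. Hits called at six-sigma limits.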"}, "BMX": {"molecular_target": "T1, BMX (Homo sapiens, UniProt P51813)", "T1 sequence (P51813 1-675)": "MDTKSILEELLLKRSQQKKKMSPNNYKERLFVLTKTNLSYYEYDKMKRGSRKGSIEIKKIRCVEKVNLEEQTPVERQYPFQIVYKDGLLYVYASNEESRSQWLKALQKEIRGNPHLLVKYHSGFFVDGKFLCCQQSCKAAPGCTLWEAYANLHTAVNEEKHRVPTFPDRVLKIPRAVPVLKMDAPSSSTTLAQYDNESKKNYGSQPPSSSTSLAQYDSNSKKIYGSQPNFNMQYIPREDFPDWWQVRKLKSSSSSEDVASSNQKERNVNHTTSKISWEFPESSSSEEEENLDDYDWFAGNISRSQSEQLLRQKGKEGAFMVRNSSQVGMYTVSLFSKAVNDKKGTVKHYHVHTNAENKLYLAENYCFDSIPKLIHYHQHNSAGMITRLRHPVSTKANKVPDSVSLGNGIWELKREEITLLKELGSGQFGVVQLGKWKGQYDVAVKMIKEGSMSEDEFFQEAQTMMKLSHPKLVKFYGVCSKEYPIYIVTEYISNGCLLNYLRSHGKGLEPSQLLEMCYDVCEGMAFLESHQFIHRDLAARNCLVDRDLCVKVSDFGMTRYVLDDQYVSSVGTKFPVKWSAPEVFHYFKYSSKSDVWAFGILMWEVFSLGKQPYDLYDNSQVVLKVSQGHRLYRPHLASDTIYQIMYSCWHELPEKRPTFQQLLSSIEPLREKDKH", "method_in_brief": "as §1"}, "C-TAK1": {"molecular_target": "C-TAK1 (Homo sapiens, UniProt P27448)", "sequence (P27448 whole entry)": "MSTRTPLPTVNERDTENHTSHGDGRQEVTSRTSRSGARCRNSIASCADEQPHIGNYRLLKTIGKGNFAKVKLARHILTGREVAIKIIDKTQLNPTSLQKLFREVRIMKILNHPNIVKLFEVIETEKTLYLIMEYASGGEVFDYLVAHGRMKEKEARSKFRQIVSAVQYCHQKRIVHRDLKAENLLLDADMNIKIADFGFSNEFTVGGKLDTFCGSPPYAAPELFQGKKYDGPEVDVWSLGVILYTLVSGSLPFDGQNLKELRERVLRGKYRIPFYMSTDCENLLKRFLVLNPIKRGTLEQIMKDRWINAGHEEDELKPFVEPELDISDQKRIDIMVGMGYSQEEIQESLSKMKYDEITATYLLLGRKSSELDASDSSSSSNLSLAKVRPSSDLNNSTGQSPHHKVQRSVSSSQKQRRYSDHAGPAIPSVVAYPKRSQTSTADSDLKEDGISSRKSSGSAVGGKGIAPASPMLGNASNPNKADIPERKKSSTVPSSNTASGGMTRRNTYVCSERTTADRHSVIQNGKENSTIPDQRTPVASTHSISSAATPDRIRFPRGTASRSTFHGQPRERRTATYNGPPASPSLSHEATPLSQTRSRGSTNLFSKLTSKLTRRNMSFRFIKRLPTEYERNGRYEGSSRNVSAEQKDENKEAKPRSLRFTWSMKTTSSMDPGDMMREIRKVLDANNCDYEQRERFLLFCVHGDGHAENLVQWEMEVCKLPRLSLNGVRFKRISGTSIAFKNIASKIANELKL", "method_in_brief": "as §1"}, "MAPKAPK2": {"molecular_target": "MAPKAPK2 (Homo sapiens, UniProt P49137)", "sequence (P49137 whole entry)": "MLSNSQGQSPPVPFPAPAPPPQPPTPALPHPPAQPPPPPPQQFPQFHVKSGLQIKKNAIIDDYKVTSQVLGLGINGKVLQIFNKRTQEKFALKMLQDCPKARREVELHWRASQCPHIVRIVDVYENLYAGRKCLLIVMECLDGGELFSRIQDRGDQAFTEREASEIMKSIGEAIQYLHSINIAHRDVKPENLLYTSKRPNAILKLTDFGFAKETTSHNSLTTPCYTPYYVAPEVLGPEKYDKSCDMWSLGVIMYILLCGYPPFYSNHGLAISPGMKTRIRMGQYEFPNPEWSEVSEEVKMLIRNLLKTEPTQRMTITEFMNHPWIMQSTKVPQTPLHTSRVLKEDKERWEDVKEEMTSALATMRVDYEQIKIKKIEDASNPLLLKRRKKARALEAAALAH", "method_in_brief": "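Phosphorylation of a peptide substrate was quantified by Caliper mobility-shift separation of substrate and product after 2.5 h at 20-22 °C, with compounds tested at 10 μM. Inhibition was normalized to EDTA-quenched (100%) and DMSO (0%) controls; six-sigma thresholds flagged actives.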"}, "ABL1": {"molecular_target": "ABL1 (Homo sapiens, UniProt P00519)", "sequence (P00519 whole entry)": "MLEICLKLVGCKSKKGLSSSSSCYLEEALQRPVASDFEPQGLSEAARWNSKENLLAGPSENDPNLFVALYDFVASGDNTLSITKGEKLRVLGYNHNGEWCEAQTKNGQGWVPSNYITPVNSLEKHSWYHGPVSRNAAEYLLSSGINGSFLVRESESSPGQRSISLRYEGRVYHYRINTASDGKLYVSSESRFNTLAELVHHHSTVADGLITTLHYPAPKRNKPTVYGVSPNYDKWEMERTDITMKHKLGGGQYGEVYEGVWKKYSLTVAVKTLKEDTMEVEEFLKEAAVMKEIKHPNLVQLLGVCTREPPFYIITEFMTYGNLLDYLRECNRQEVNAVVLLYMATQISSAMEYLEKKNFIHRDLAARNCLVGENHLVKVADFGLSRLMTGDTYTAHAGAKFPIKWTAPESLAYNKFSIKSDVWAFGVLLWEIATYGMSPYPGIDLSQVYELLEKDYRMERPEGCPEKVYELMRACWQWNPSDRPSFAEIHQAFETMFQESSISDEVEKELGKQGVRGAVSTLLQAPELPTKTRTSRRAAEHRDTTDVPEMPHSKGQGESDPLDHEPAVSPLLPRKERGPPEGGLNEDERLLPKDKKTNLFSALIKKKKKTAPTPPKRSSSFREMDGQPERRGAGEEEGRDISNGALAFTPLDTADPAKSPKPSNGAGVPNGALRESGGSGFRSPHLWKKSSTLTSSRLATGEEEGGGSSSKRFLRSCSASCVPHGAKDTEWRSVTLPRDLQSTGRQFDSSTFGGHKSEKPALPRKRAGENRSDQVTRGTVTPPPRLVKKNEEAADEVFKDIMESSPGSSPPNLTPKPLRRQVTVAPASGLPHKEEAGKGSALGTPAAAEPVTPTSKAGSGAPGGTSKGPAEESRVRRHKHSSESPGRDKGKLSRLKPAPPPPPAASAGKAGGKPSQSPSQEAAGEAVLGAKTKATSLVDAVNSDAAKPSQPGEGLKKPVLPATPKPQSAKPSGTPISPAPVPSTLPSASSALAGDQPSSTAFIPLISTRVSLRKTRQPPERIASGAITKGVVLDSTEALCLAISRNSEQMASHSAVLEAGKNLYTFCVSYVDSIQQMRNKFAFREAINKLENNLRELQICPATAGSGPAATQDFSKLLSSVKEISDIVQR", "method_in_brief": "as §1"}, "PRAK": {"molecular_target": "T2, PRAK (Homo sapiens, UniProt Q8IW41)", "T2 sequence (Q8IW41 1-473)": "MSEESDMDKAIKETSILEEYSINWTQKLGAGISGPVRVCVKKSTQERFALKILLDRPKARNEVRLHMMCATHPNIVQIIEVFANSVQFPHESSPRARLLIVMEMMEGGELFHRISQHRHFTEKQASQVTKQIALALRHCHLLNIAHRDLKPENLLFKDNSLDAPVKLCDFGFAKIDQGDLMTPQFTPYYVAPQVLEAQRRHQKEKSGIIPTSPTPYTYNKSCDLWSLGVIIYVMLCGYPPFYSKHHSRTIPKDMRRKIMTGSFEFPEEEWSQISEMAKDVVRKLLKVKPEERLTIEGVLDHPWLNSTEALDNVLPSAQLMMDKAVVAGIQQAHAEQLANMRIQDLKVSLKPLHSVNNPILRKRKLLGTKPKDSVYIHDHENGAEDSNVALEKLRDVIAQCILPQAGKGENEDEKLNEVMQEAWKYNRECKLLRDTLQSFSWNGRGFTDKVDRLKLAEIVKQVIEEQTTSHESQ", "method_in_brief": "as §1"}, "AKT3": {"molecular_target": "AKT3 (Homo sapiens, UniProt Q9Y243)", "method_in_brief": "as §1"}, "LCK": {"molecular_target": "LCK (Homo sapiens, UniProt P06239)", "sequence (P06239 whole entry)": "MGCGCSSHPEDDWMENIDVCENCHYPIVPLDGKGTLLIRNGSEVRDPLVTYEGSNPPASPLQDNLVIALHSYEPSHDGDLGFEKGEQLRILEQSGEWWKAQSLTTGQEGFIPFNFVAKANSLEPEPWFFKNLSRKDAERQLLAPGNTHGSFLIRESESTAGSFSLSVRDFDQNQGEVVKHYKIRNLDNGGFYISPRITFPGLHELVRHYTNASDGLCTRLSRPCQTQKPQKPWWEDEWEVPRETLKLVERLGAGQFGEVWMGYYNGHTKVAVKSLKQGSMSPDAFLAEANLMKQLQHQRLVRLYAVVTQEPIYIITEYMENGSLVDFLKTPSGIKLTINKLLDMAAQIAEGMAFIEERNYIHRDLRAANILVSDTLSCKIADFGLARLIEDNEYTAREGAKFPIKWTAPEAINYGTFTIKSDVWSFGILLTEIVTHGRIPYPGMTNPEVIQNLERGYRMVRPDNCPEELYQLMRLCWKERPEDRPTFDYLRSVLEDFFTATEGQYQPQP", "method_in_brief": "as §1"}, "LYNA": {"molecular_target": "LYNA (Homo sapiens, UniProt P07948)", "sequence (P07948 whole entry)": "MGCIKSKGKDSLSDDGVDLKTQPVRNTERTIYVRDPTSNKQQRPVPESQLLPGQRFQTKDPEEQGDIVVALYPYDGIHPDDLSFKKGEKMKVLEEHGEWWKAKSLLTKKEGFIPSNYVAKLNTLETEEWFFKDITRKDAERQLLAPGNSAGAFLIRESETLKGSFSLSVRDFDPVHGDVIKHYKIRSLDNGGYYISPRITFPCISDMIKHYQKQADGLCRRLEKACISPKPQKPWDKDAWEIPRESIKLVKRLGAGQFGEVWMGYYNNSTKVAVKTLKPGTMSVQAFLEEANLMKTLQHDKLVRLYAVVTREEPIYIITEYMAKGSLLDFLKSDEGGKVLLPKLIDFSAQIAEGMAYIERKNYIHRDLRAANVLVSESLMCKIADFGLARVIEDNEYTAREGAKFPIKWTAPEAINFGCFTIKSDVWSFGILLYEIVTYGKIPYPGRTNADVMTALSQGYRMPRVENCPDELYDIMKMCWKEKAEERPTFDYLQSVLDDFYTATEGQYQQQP", "method_in_brief": "as §1"}, "NEK2": {"molecular_target": "T3, NEK2 (Homo sapiens, UniProt P51955)", "T3 sequence (P51955 1-445)": "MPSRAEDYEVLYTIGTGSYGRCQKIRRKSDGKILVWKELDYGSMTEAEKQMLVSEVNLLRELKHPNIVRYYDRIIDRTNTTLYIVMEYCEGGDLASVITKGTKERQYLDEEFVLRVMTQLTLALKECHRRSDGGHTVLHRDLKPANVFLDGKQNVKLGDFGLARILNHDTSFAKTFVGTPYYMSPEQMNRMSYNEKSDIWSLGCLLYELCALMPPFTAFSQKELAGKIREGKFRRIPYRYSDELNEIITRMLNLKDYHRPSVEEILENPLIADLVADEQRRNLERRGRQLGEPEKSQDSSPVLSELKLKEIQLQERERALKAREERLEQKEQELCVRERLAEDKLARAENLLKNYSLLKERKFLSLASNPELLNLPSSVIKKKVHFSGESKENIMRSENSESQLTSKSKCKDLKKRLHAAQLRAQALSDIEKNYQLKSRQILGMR", "method_in_brief": "as §1"}, "PDGFR-α": {"molecular_target": "PDGFR-α (Homo sapiens, UniProt P16234)", "sequence (P16234 24-1089)": "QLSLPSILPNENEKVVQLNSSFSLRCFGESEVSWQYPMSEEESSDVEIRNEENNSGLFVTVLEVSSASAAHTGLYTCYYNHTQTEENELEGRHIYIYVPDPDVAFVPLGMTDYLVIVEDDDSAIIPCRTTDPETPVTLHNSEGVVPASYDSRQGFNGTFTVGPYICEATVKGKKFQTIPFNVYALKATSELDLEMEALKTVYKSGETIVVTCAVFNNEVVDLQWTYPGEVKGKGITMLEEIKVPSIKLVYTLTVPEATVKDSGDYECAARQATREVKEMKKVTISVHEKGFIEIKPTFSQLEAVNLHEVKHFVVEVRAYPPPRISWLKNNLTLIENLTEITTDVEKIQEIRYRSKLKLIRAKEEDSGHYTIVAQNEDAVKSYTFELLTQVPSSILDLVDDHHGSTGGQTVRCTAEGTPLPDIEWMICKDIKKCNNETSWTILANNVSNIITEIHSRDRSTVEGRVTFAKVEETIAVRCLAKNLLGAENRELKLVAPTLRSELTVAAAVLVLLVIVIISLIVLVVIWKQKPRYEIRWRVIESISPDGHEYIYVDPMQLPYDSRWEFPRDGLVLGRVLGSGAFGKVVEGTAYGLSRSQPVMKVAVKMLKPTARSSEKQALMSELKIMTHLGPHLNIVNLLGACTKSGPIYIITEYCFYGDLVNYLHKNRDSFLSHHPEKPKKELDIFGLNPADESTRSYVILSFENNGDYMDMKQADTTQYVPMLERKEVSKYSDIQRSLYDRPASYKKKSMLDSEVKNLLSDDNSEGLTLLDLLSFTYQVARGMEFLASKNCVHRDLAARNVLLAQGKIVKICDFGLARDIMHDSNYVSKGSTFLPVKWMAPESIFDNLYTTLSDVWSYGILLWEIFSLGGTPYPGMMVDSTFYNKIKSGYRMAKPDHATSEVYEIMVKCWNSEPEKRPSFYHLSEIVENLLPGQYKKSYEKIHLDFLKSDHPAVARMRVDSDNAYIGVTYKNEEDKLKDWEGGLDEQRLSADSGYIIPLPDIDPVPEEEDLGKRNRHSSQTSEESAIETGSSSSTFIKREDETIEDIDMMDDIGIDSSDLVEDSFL", "method_in_brief": "as §1"}, "FLT-3": {"molecular_target": "T4, FLT-3 (Homo sapiens, UniProt P36888)", "T4 sequence (P36888 27-993)": "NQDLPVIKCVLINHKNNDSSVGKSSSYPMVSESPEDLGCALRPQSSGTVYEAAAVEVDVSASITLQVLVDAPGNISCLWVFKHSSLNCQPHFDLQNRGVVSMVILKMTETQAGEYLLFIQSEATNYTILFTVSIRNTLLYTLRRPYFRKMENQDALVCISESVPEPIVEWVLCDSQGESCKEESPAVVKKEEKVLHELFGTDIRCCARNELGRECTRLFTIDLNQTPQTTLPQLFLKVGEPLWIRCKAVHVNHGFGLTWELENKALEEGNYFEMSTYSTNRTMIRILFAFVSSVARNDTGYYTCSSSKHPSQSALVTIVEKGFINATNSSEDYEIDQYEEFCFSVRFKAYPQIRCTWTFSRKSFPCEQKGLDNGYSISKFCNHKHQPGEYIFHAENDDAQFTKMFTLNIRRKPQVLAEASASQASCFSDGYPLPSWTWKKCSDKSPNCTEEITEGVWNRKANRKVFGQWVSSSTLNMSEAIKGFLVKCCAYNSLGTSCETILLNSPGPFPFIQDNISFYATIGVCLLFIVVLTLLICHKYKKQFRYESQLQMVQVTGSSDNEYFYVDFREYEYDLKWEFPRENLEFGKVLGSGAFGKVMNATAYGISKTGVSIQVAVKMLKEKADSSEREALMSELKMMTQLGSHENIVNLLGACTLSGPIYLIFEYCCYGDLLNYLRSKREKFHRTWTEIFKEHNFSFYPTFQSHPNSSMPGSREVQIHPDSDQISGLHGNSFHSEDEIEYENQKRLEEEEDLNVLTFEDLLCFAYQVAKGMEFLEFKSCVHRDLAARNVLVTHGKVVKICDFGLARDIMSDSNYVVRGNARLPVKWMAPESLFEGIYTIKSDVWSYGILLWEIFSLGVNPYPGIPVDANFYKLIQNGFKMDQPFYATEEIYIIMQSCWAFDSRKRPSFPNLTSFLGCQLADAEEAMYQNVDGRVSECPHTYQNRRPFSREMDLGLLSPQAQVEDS", "method_in_brief": "as §1"}}, "data": [{"smiles": "CN1CCN(c2ccc(Nc3ccnc4ccc(-c5ccc(OCc6ccccc6)cc5)cc34)cc2)CC1", "note": "[6-(4-(benzyloxy)phenyl)-N-(4-(4-methylpiperazin-1-yl)phenyl)quinolin-4-amine]", "values": [{"measurement": "Activity", "setting": "SRC", "result": "SRC"}, {"measurement": "Activity", "setting": "BMX", "result": "BMX"}, {"measurement": "Activity", "setting": "C-TAK1", "result": "C-TAK1"}]}, {"smiles": "CN1CCN(c2ccc(Nc3ccnc4ccc(-c5cc6ccccc6s5)cc34)cc2)CC1", "note": "[6-(benzo[b]thiophen-2-yl)-N-(4-(4-methylpiperazin-1-yl)phenyl)quinolin-4-amine]", "values": [{"measurement": "Activity", "setting": "SRC", "result": "SRC"}, {"measurement": "Activity", "setting": "C-TAK1", "result": "C-TAK1"}, {"measurement": "Activity", "setting": "MAPKAPK2", "result": "MAPKAPK2"}]}, {"smiles": "CN1CCN(c2ccc(Nc3ccnc4ccc(-c5csc6ccccc56)cc34)cc2)CC1", "note": "[6-(benzo[b]thiophen-3-yl)-N-(4-(4-methylpiperazin-1-yl)phenyl)quinolin-4-amine]", "values": [{"measurement": "Activity", "setting": "ABL1", "result": "ABL1"}, {"measurement": "Activity", "setting": "PRAK", "result": "PRAK"}, {"measurement": "Activity", "setting": "MAPKAPK2", "result": "MAPKAPK2"}]}, {"smiles": "CN1CCN(c2ccc(Nc3ccnc4ccc(-c5cccc(O)c5)cc34)cc2)CC1", "note": "[3-(4-(4-(4-methylpiperazin-1-yl)phenylamino)quinolin-6-yl)phenol]", "values": [{"measurement": "Activity", "setting": "AKT3", "result": "AKT3"}, {"measurement": "Activity", "setting": "LCK", "result": "LCK"}, {"measurement": "Activity", "setting": "ABL1", "result": "ABL1"}, {"measurement": "Activity", "setting": "SRC", "result": "SRC"}, {"measurement": "Activity", "setting": "PRAK", "result": "PRAK"}, {"measurement": "Activity", "setting": "MAPKAPK2", "result": "MAPKAPK2"}]}, {"smiles": "CN1CCN(c2ccc(Nc3ccnc4ccc(-c5ccccc5-c5ccccc5)cc34)cc2)CC1", "note": "[6-(biphenyl-2-yl)-N-(4-(4-methylpiperazin-1-yl)phenyl)quinolin-4-amine]", "values": [{"measurement": "Activity", "setting": "LYNA", "result": "LYNA"}, {"measurement": "Activity", "setting": "LCK", "result": "LCK"}, {"measurement": "Activity", "setting": "ABL1", "result": "ABL"}, {"measurement": "Activity", "setting": "NEK2", "result": "NEK2"}, {"measurement": "Activity", "setting": "PRAK", "result": "PRAK"}]}, {"smiles": "COc1ccc(-c2ccc3nccc(Nc4ccc(N5CCN(CC(=O)O)CC5)cc4)c3c2)cc1", "note": "[2-(4-(4-(6-(4-methoxyphenyl)quinolin-4-ylamino)phenyl)piperazin-1-yl)acetic acid]", "values": [{"measurement": "Activity", "setting": "PDGFR-α", "result": "PDGFR-α"}, {"measurement": "Activity", "setting": "MAPKAPK2", "result": "MAPKAPK2"}]}, {"smiles": "CN1CCN(c2ccc(Nc3ccnc4ccc(-c5cccc(Cl)c5Cl)cc34)cc2)CC1", "note": "[6-(2,3-dichlorophenyl)-N-(4-(4-methylpiperazin-1-yl)phenyl)quinolin-4-amine]", "values": [{"measurement": "Activity", "setting": "LYNA", "result": "LYNA"}, {"measurement": "Activity", "setting": "C-TAK1", "result": "C-TAK1"}, {"measurement": "Activity", "setting": "PRAK", "result": "PRAK"}, {"measurement": "Activity", "setting": "MAPKAPK2", "result": "MAPKAPK2"}]}, {"smiles": "O=C(O)CN1CCN(c2ccc(Nc3ccnc4ccc(-c5ccccc5)cc34)cc2)CC1", "note": "[2-(4-(4-(6-phenylquinolin-4-ylamino)phenyl)piperazin-1-yl)acetic acid]", "values": [{"measurement": "Activity", "setting": "FLT-3", "result": "FLT-3"}, {"measurement": "Activity", "setting": "PDGFR-α", "result": "PDGFR-α"}, {"measurement": "Activity", "setting": "MAPKAPK2", "result": "MAPKAPK2"}]}]}
